From patent US8569229B2, “Compositions and methods which modulate G-protein signaling for the treatment of inflammatory disorders such as asthma and allergic conjunctivitis” (The Children's Hospital of Philadelphia, priority 2008, dated 2013)
Ends that are not written are not given here.

How the values were obtained:
[1] = system: OVA-sensitized rabbits; assay: IL-13 and IFN-γ in BALF samples of OVA-sensitized, OVA-challenged rabbits; assay type: in vivo, rabbit; conditions: pretreated OVA-sensitized+OVA challenged rabbits
Description: In vivo studies were conducted wherein adult NZW rabbits were initially sensitized with weekly intra-peritoneal (i.p.) injections of 2.5 mg OVA and 10 mg of alum adjuvant for 4-5 weeks, and non-sensitized (control) rabbits received alum alone. Both the OVA sensitized and control animals were then challenged with either vehicle (saline) or aerosolized OVA delivered via a nebulizer. The following day, while mechanically ventilated under general anesthesia/paralysis, the rabbits' broncho-constrictor responses to intravenous (i.v.) bolus injections of cumulatively increasing doses of methacholine (MCh) were determined and induced changes in respiratory system resistance (Rrs), measured as previously described (Grunstein et al. J. Appl. Physiol: Respirat. Environ. Exercise Physiol. 57:1238-1246, 1984). Lung lavage was then performed to obtain bronchoalveolar lavage fluid (BALF) samples, and the lungs were excised for histological examination in H&E-stained paraffin-embedded 4 micron sections.

[2] = system: rabbit ASM tissues; assay: Constrictor responsiveness to acetylcholine (ACh) in isolated rabbit ASM tissues, isometric tension in organ bath; conditions: for effect of pretreatment on PGE2-induced increase in constrictor responsiveness to ACh: PGE2 100 nM x 24 hr; for effect of pretreatment on salmeterol-induced increase in constrictor responsiveness to ACh: salmeterol 10 μM x 24 hr
Excerpt: Detection of PDE4D5 mRNA transcripts: Total RNA was extracted from the cultured ASM cells using the TRIzol method (Invitrogen), and cDNAs were isolated by RT-PCR using the SuperScript First Strand Synthesis System kit from Invitrogen, with the following oligonucleotide primer sets (Integrated DNA Technologies): for PDE4D5, 5′-[…]-3′ (forward; SEQ ID NO: 2) and 5′-[…]-3′ (reverse; SEQ ID NO: 3); and for β-actin, 5′-[…]-3′ (forward; SEQ ID NO: 4) and 5′-[…]-3′ (reverse; SEQ ID NO: 5). The reaction volume was 20 μl and cycling conditions used were 35 cycles of 30 sec denaturation at 95° C., followed by 30 sec annealing at 60° C. and elongation at 72° C. for 30 sec. Ex-Tag (Takara Biotechnology) was used as DNA polymerase. […] Following protein extraction and the addition of gel-loading buffer, the extracts were loaded on a 10% SDS-PAGE gel for immunoblotting after transfer to a PVDF membrane. The membranes were then incubated overnight with monoclonal mouse anti-human primary antibodies directed against phospho-CREB and -ATF1, phospho-ERK1/2, or α-actin, and levels were detected by ECL after a 1-hr incubation with a 1:2,000 dilution of HRP-conjugated rabbit anti-mouse secondary antibody, followed by exposure to autoradiography film. The protein band intensities were quantified by densitometry. siRNA-mediated knockdown of PKA: ASM cells were seeded into 6-well plates and, at ˜40% confluency, the medium was replaced with the reduced serum-containing medium, Opti-MEM (Invitrogen). The cells were then transfected twice during a 24-hr interval with two pools of three siRNA duplexes, each pool targeted against the human PKAα or PKAγ catalytic subunits (Santa Cruz Biotechnology; sc-36240 and sc-36236, respectively), or with a non-targeted control (scrambled) siRNA duplex, using Oligofectamine (Invitrogen) as the transfection agent. The pools of siRNAs were applied to each well at a final concentration of 100 nM for each siRNA preparation. […] Transfection of ASM cells with adeno-βARK-ct: Adenovirus (adeno)-βARK-ct, an adenovirus vector encoding the βARK1 carboxyl-terminal domain which blocks Gβγ signaling (25,26), and adeno-β-gal, an adenovirus vector expressing lacZ as a negative control, were constructed using the AdenoX adenovirus construction kit (BD-Clontech). Recombinant plaques were isolated and propagated in HEK293 cells (Invitrogen), with viral purification using the cesium chloride gradient method, and viral titer detected by plaque assay. The ASM cells were transfected with either of the adenoviral vectors at a multiplicity of infection (MOI) of 100, and experiments were conducted at 24 hr following adenoviral tranfections. Pharmacodynamic studies of constrictor and relaxation responsiveness in rabbit ASM tissues: Following initial sedation and subsequent general anesthesia with intramuscular injections of xylazine (10 mg/kg) and ketamine (50 mg/kg), respectively, rabbits were sacrificed with an intravenously administered overdose of sodium pentobarbital (100 mg/kg). As described previously (16), the tracheae were excised via open thoracotomy, the loose connective tissue and epithelium were scraped and removed, and the tracheae were divided into 8 ring segments, each of 6-8 mm in length. […] After these incubations, the tissues were placed in organ baths containing modified Krebs-Ringer solution aerated with 5% CO2 in oxygen (pH of 7.35-7.40), and attached to force transducers to continuously monitor isometric tension. […] The constrictor and relaxation dose-response curves were analyzed with respect to each tissue's maximal isometric contractile force (Tmax) to ACh and maximal relaxation response (Rmax) to isoproterenol from the initial level of active cholinergic contraction. Statistical analyses: Results are expressed as mean±SE values. Comparisons between groups were made using the Student's t-test (two-tailed) or ANOVA with Tukey's post-test analysis, where appropriate.

MPS-Phosducin-like protein C terminus (AAVALLPAVLLALLAVTDQLGEDFFAVDLEAFLQEFGLLPEKE; also: MPS attached) [anti-Gβγ peptide]
effect on OVA challenge-induced decrease in BALF IFN-γ [1]: prevents
effect on OVA challenge-induced increase in BALF IL-13 [1]: prevents
effect of pretreatment on PGE2-induced increase in constrictor responsiveness to ACh ([2]; listed as Gβγ inhibitory peptide): prevents
effect of pretreatment on PGE2-induced increase in constrictor responsiveness to ACh ([2]; listed as anti-Gβγ cell-permeable inhibitory peptide): prevented
effect of pretreatment on salmeterol-induced increase in constrictor responsiveness to ACh [2]: prevented
effect of pretreatment on salmeterol-induced increase in constrictor responsiveness to ACh ([2]; listed as MPS-conjugated anti-Gβγ peptide): ablated
effect of the agent alone on constrictor responses to ACh ([2]; vehicle-exposed control tissues): no significant effect
